Structures can show the parent of a compound that is named as a salt.
Key:
human fibroblasts = assay: Oxygen consumption rate in DMF-treated fibroblasts by Seahorse XF Analyzer; assay type: cell-based; details: 48 hours
Protocol: Fibroblast cell lines were seeded at a density of 60,000 cells/well in 200 μL of culture medium in a 24-well seahorse tissue culture plate (Seahorse Biosciences, Billerica, Mass., USA). Following a 24-hour incubation, the media was replaced and incubated with 200 μL of 0.1% DMSO or 3 μM, 10 μM and 30 μM dimethyl fumarate in 0.1% DMSO. Prior to reading the oxygen consumption, the medium was changed to unbuffered DMEM without phenol red (Corning, Inc., Corning, N.Y., USA), 10% fetal bovine serum (JR-Scientific, Woodland, Calif., USA), […] glutamax, […] sodium pyruvate, 25 mM glucose (Invitrogen, Waltham, Mass., USA) and was adjusted to pH 7.4. Cells were pre-equilibrated for 20 min; oxygen consumption rate (OCR) and proton production rate (PPR) were recorded with the Seahorse XF-24 after sequential addition of oligomycin (1 ug/ml), FCCP (10 μM) and a combination of antimycin A (1 μM) and rotenone (1 μM) (Sigma-Aldrich, St. Louis, Mo., USA). Total protein in each well was measured and protein concentration was used to normalize the readings.
To elucidate the bioenergetic effects of DMF-dependent increases in mitochondrial copy number and mitochondrial complex expression in human fibroblasts, oxygen consumption rate (OCR) was measured. Human fibroblasts were treated with 0.1% DMSO, 3 μM, 10 μM or 30 μM DMF for 48 hours, and oxygen consumption rate (OCR) was sequentially measured in the presence of oligomycin (complex 5 inhibitor), FCCP (mitochondrial uncoupler), and rotenone/antimycin A (Complex 1/3 inhibitor) [FIG. 2A]. […] Consistent with the idea that DMF increases mitochondrial copy number and mitochondrial complex expression; the effects of DMF are nullified in the presence of oligomycin and rotenone/antimycin A, which inhibits the mitochondrial electron transport chain that is responsible for mitochondrial oxygen consumption.

C57BL/6 wild-type mice [1] = assay: mtDNA copy number (mt-Nd1/Cftr) by qPCR in tissues of DMF-dosed mice; assay type: in vivo, mouse; details: 10 mg/kg DMF i.p. daily, two weeks
Protocol: (§1) C57BL/6 wild-type mice were housed in a vivarium maintained at 22° C.-24° C. and 40%-60% relative humidity with a 12-hour light/12-hour dark cycle. All experimental procedures were approved by the University of California Institutional Animal Care and Use Committee.
(§2) The stock dimethyl fumarate solution was made by dissolving 50 mg/ml of DMF into DMSO. Prior to injection, 0.5 mg/ml of working DMF solution (1:100 dilution) was made by diluting the stock solution into phosphate-buffered saline with 5% Tween-20 and 5% Polyethylene glycol (Sigma-Aldrich, St. Louis, Mo., USA). The mice were injected intraperitoneally every day for 14 days with 10 mg/kg of DMF.
(§3) The mice were euthanized with CO2 followed by cervical dislocation and tissues were immediately removed then flash frozen with liquid nitrogen. Samples were stored in −80° C. until utilized for experiments.
(§4) Total DNA was extracted from human fibroblast and mouse tissues using DNeasy plus mini kit and DNeasy blood & tissue kit (Qiagen, Valencia, Calif., USA), respectively, following manufacturer's instruction. DNA was quantified by a NanoDrop 2000c Spectrophotometer (Thermo Scientific, Waltham, Mass., USA).
(§5) cDNA was synthesized from mRNA with iScript cDNA Synthesis Kit (Bio-Rad Laboratories, Hercules, Calif., USA) per manufacturer's instruction in a C1000 Touch Thermal Cycler (Bio-Rad Laboratories, Hercules, Calif., USA). A SensiFAST SYBR No-ROX Kit (Bioline, Taunton, Mass., USA) was used to perform qPCR on the synthesized cDNA in a Roche Lightcycler 480 (Roche Diagnostics, Indianapolis, Ind., USA). The second derivative of the amplification curve was used to determine the cycle threshold, and the data were analyzed by a delta delta CT calculation.
(§6) To understand whether the DMF-dependent mitochondrial biogenesis is only applicable to the human fibroblast cells, we examined the effects of DMF on wild type C57BL/6 mice. The mice were dosed with 10 mg/kg DMF daily, and skeletal muscle, cerebellum, liver, and heart tissues were collected after two weeks of treatment We utilized qPCR to analyze, mtDNA copy number as ratio of mt-Nd1 to Cftr and mitochondrial complex expression, in these tissues.

[2] = tested on: healthy human fibroblast cell line AG09429; assay: qPCR of TFAM and mitochondrial complex subunit mRNA in DMF-treated human fibroblasts; assay type: cell-based; details: for average induction of all the mitochondrial complexes (subunit mRNA) compared to vehicle / expression of mitochondrial biogenesis marker TFAM compared to vehicle control: 48 hours
Protocol: (§7) The healthy human fibroblast cell line AG09429 (Coriell Institute, Camden, N.J., USA) was maintained at 37° C. in a humidified atmosphere with 5% CO2. DMEM (Corning, Inc., Corning, N.Y., USA) supplemented with 10% fetal bovine serum (JR-Scientific, Woodland, Calif., USA), 1× Penicillin-Streptomycin Solution (Corning, Inc., Corning, N.Y., USA) was used as growth media. Media was changed every two days.
(§8) The human fibroblasts were plated in a 12-well format at 0.1×10^6 cells per well. The cells were incubated with 0.1% DMSO as vehicle control or 3-30 μM of dimethyl fumarate (Sigma-Aldrich, St. Louis, Mo., USA) dissolved in DMSO. Total RNA and DNA were extracted following a 48-hour incubation period.
(§9) Total RNA was extracted from human fibroblast cells and PBMCs from whole blood using RNeasy plus mini kit (Qiagen, Valencia, Calif.) and RIboPure RNA Purification Kit (ThermoFisher Scientific, Waltham, Mass., USA), respectively following manufacturers instruction. RNA quantity and quality was measured by a NanoDrop 2000c Spectrophotometer (Thermo Scientific, Waltham, Mass., USA).
as §5
To elucidate whether increased mitochondrial proliferation affects the abundance of the ETC mitochondrial complexes, qPCR analysis was performed to quantify the mRNA expression of numerous complex subunits: complex 1 subunits MT-ND2 and MT-ND6, complex 2 subunits SDHA and SDHB, […], and complex 5 subunits ATP5B and MT-ATP6 [Table 1]. […] Taken together, human fibroblast cells increased mitochondrial biogenesis measured by mtDNA copy number, mitochondrial proliferator marker TFAM expression and mitochondrial complex expression.

[3] = tested on: healthy human fibroblast cell line AG09429; assay: mtDNA copy number (mtDNA/nDNA, MT-TL1/B2M) by qPCR in DMF-treated human fibroblasts; assay type: cell-based; details: 48 hours
Protocol: as §7, §8, §4, §5
Healthy human fibroblast cells were treated with 0.1% DMSO (vehicle), 3 μM, 10 μM or 30 μM DMF for 48 hours. Mitochondrial DNA (mtDNA) copy number was analyzed from total DNA isolates by measuring the ratio of mitochondrial to nuclear DNA (mtDNA/nDNA). Primers used to amplify mitochondrial DNA and nuclear DNA by qPCR were mitochondrially-encoded tRNA leucine 1 (MT-TL1) and Beta 2 microglobulin (B2M) respectively. […]

HCAR2 = assay: DMF treatment of HCAR2 siRNA knockdown human fibroblasts, qPCR; assay type: cell-based; details: HCAR2 siRNA 48 hours, then DMF 48 hours
Protocol: (§10) Fibroblast cells were seeded in six-well plates at 0.2×10^6 cells per well and transfected with negative control siRNA (cat. 12935300, Thermo-Fisher, Waltham, Mass., USA), pooled Nrf2 siRNA (cat. HSS107130, HSS181505, HSS181506, Thermo-Fisher, Waltham, Mass., USA) or pooled HCAR2 siRNA (cat. L-006688-02-0005, Dharmacon, Lafayette, Colo., USA) using Lipofectamine RNAiMAX following manufacturer's instruction. After a 48-hour incubation, subsequent drug treatment was conducted with the cells.
as §5, with “A SensiFAST SYBR No-ROX Kit (Bioline, Taunton, Mass., USA) was used to perform qPCR on the synthesized cDNA in a Roche Lightcycler 480 (Roche Diagnostics, Indianapolis, Ind., USA).” left out
(§11) DMF is known to mediate antioxidant cellular defense by Nrf2 activation, and it suppresses inflammatory signaling by binding to and activating HCAR2 (11, 15). To further understand the Nrf2 and HCAR2 dependent effects of DMF on mitochondrial biogenesis, we analyzed changes in mitochondrial proliferation in Nrf2 siRNA knockdown and HCAR2 siRNA knockdown fibroblasts.

MS patients [4] = assay: mtDNA copy number (MT-TL1/B2M) by qPCR in PBMCs of MS patients before and after DMF treatment; assay type: in vivo, human; details: 3 months DMF treatment
Text: (§12) The local Ethics Committee of the University Federico II of Naples, approved the study. Patients were recruited from the Multiple Sclerosis Center of the Federico II University of Naples. All patients gave written informed consent before any activity linked to the study was started. Healthy controls were recruited at the clinic through students and site personnel. The study included 12 MS patients and 11 healthy individuals. Samples were obtained on the day before and after 3 months of continuous DMF treatment. Whole blood was collected in EDTA containing Leucosep® tubes (Greiner bio-one, Frickenhausen, Germany) and frozen at −80° C. until analysis. PBMCs were isolated from 30 mL of EDTA anticoagulated whole blood for RNA extraction.
as §5
DMF is a FDA approved drug, currently being used to treat adult patients with relapsing form of MS. […]

MS patients [5] = assay: qPCR of mitochondrial complex subunit expression in PBMCs of MS patients before and after DMF treatment; assay type: in vivo, human
Text: as §12, §9, §5
DMF is a FDA approved drug, currently being used to treat adult patients with relapsing form of MS. To confirm whether DMF is contributing to mitochondrial biogenesis when given to human patients, we used qPCR to study mitochondrial DNA copy number and mitochondrial complex subunit expression in peripheral blood lymphocytes isolated from 11 MS patients at baseline and those same patients 3 months after DMF treatment, and 10 controls. We see significant increase in mitochondrial DNA copy number by 71% (p<0.0075, n=11) in MS patients' treated with DMF for 3 months compared to its own baseline [FIG. 4A].

C57BL/6 wild-type mice [6] = assay: qPCR of mitochondrial complex subunit expression in tissues of DMF-dosed mice; assay type: in vivo, mouse; details: 10 mg/kg DMF i.p. daily, two weeks
Protocol: as §1, §2, §3, §5, §6

Nrf2 = assay: DMF treatment of Nrf2 siRNA knockdown human fibroblasts, qPCR; assay type: cell-based; details: then DMF 48 hours
Protocol: as §10, §5, §11

[7] = MS patients, 3 months DMF treatment

`COC(=O)/C=C/C(=O)OC` [DMF, dimethyl fumarate] was tested, and the “maximal OCR after FCCP injection, relative increase compared to vehicle control” value (human fibroblasts; 3 μM DMF) was 1.20 fold, the “basal OCR, relative increase compared to vehicle control” value (human fibroblasts; 10 μM DMF) was 1.59 fold and the “maximal OCR after FCCP injection, relative increase compared to vehicle control” value (human fibroblasts; 10 μM DMF) was 1.35 fold. For the same molecule, the “basal OCR, relative increase compared to vehicle control” value (human fibroblasts; 30 μM DMF) was 1.66 fold, the “maximal OCR after FCCP injection, relative increase compared to vehicle control” value (human fibroblasts; 30 μM DMF) was 1.47 fold and the “OCR in the presence of oligomycin and rotenone/antimycin A, DMF groups vs vehicle control” value (human fibroblasts; 3, 10, 30 μM DMF) was “not significantly different”. For the same molecule, the “increase in mtDNA copy number” value (C57BL/6 wild-type mice [1]; cerebellum) was 1.29 fold, the “change in mtDNA copy number” value (C57BL/6 wild-type mice [1]; heart) was “no significant change” and the “increase in mtDNA copy number” value (C57BL/6 wild-type mice [1]; liver) was 1.34 fold. For the same molecule, the “increase in mtDNA copy number” value (C57BL/6 wild-type mice [1]; skeletal muscle) was 1.45 fold, the “average induction of all the mitochondrial complexes (subunit mRNA) compared to vehicle” value ([2]; 10 μM DMF) was 1.42 fold and the “expression of mitochondrial biogenesis marker TFAM compared to vehicle control” value ([2]; 10 μM DMF) was “increased”. For the same molecule, the “average induction of all the mitochondrial complexes (subunit mRNA) compared to vehicle” value ([2]; 30 μM DMF) was 2.65 fold, the “expression of mitochondrial biogenesis marker TFAM compared to vehicle control” value ([2]; 30 μM DMF) was “increased” and the “expression of complex 5 subunits in response to DMF compared to other complex subunits” value ([2]; DMF 48 hours) was “less increased”. The “change in mtDNA copy number compared to vehicle control” value ([3]; 3 μM DMF) was “no changes”, the “increase in mtDNA copy number compared to vehicle control” value ([3]; 10 μM DMF) was 1.51 fold and the “increase in mtDNA copy number compared to vehicle control” value ([3]; 30 μM DMF) was 1.75 fold. The “inducibility of NRF1, mtDNA copy number and mitochondrial complex 2-5 subunit gene expression, siHCAR2+DMF compared to siCTL+DMF” value (HCAR2) was “no significant difference”, the “inducibility of complex 1 subunit MT-ND2 by DMF when HCAR2 is knocked down” value (HCAR2) was “uninducible” and the “mitochondrial DNA copy number compared to healthy control group” value (MS patients [4]) was “back to healthy control level”. For the same molecule, the “increase in mitochondrial DNA copy number compared to own baseline” value (MS patients [4]; peripheral blood lymphocytes) was 71%, the “recovery in average mitochondrial gene expression (mt-ND6, mt-CYB, mt-CO2, mt-ATP6)” value (MS patients [5]; MS patients following 3 months DMF treatment, relative to healthy individuals) was 88% and the “increase in mt-ATP6 (complex 5) expression normalized to own baseline” value (MS patients [5]; [7]) was 3.74 fold. For the same molecule, the “increase in mt-CO2 (complex 4) expression normalized to own baseline” value (MS patients [5]; [7]) was 2.34 fold, the “increase in mt-CYB (complex 3) expression normalized to own baseline” value (MS patients [5]; [7]) was 2.87 fold and the “increase in mt-ND6 (complex 1) expression normalized to own baseline” value (MS patients [5]; [7]) was 3.13 fold. For the same molecule, the “increase in mt-Atp6 (complex 5) expression” value (C57BL/6 wild-type mice [6]; cerebellar tissue) was 1.82 fold, the “increase in mt-Co1 (complex 4) expression” value (C57BL/6 wild-type mice [6]; cerebellar tissue) was 1.92 fold and the “induction of mitochondrial complexes” value (C57BL/6 wild-type mice [6]; liver or heart tissues) was “more minor”. For the same molecule, the “increase in mt-Atp6 (complex 5) expression” value (C57BL/6 wild-type mice [6]; skeletal muscle) was 1.77 fold, the “increase in mt-Co1 (complex 4) expression” value (C57BL/6 wild-type mice [6]; skeletal muscle) was 2.38 fold and the “increase in mt-Nd2 expression” value (C57BL/6 wild-type mice [6]; skeletal muscle) was 4.68 fold. For the same molecule, the “expression of Nrf2, NQO1 and mtDNA copy number, siNrf2+DMF compared to siNrf2 cells” value (Nrf2; Nrf2 siRNA 48 hours) was “significantly increases”, the “induction of TFAM and NRF1 in siNrf2+DMF” value (Nrf2; Nrf2 siRNA 48 hours) was “no significant induction” and the “mitochondrial complex expression in siNrf2+DMF cells (exception: complex 4)” value (Nrf2; Nrf2 siRNA 48 hours) was “general reduction”. For the same molecule, the “Nrf2, NQO1, TFAM, NRF1 and mtDNA copy number, siCNT+DMF compared to siCNT” value (Nrf2; control siRNA 48 hours) was “significant induction”.
